Drawing on patent US20220332700A1, “NOVEL APOPTOSIS SIGNAL-REGULATING KINASE 1 INHIBITORS” (MANKIND PHARMA LTD, priority 2019, published 2022), this text covers IC50 for 21 compounds.

pIC50: −log10 of the molar value.

Assay [1] deals with T1, recombinant ASK1 (Homo sapiens, UniProt Q99683).
T1 construct: purchased Carna Biosciences
Nature of the assay: ASK1 Biochemical Assay (HTRF KinEASE-STK S3). To be noted: ATP 100 μM; read-out: Biochemical Assay IC50. The procedure, abridged: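 Recombinant ASK1 (5 ng) preincubated with compound 1 h at 23 °C in MOPS pH 7 buffer with Mg-acetate, DTT, NP40, glycerol, BSA and 1% DMSO. Inhibition calculated against vehicle after substrate-blank subtraction.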
(TR-FRET usually uses a lanthanide donor and a delayed reading to cut background.)

Assay [2] deals with T2, Human ASK1 (Homo sapiens, UniProt Q99683).
T2 construct: expressed in transfected cells; host or cells: HEK293T-AP1
T2 sequence (Q99683 1-1374): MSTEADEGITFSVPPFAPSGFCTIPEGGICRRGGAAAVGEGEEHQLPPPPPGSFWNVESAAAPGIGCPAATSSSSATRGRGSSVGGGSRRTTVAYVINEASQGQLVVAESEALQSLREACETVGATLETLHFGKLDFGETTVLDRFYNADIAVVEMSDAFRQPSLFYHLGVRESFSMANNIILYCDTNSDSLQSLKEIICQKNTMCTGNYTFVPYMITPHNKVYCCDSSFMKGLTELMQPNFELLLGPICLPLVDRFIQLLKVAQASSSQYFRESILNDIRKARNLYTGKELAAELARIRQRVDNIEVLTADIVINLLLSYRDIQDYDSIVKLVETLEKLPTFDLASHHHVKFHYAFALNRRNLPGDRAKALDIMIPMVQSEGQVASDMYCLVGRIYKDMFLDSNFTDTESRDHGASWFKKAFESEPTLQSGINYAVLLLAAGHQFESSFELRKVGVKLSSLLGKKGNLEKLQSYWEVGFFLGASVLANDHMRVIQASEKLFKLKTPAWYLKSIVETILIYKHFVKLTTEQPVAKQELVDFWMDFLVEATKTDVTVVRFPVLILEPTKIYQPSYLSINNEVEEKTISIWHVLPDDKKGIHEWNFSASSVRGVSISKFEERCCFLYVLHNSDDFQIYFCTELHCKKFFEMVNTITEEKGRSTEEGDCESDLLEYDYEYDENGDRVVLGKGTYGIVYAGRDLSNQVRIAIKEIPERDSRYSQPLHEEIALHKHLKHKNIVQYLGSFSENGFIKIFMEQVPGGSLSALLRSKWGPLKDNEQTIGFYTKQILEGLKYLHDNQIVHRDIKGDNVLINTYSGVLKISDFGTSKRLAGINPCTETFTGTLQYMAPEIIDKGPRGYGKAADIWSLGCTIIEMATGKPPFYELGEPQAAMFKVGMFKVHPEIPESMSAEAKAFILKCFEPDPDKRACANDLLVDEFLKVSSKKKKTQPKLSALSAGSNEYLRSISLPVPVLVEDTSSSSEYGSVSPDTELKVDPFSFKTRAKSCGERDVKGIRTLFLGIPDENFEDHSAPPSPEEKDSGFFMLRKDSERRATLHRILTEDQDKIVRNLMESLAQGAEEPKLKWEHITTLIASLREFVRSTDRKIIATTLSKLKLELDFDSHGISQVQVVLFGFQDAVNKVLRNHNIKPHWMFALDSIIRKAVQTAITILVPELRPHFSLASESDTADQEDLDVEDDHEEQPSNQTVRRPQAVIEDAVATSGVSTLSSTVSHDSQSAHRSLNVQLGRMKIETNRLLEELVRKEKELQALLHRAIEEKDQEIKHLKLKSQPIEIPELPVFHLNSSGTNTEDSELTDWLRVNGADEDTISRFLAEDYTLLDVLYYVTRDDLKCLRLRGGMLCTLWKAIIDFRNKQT
Nature of the assay: ASK1 Cell Based Assay (phospho p38 read out in hASK1 transfected HEK293T-AP1 cells). To be noted: HEK293T-AP1 cells, 1 mM hydrogen peroxide, phospho p38; read-out: Cell Based Assay IC50. The procedure, abridged:
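HEK293T-AP1 cells transfected with hASK1, after 24 h treated with compounds for 24 h (0.2% DMSO), then stimulated with 1 mM H2O2 for 1 h with compounds present.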

Turning to `CC(C)n1cnnc1-c1cccc(N2CCN(c3ccc(NC4CCOCC4)cc3)C2=O)n1` [Example 1081, 1-(6-(4-isopropyl-4H-1,2,4-triazol-3-yl)pyridin-2-yl)-3-(4-(tetrahydro-2H-pyran-4-ylamino)phenyl)imidazolidin-2-one], the values for the pIC50 in assay [1] and in assay [2] were more than 7.30 and less than 7.00, respectively.
In the same order, the values of `CC(C)n1cnnc1-c1cccc(N2CCN(c3ccc(C(O)C(F)(F)F)cc3)C2=O)n1` (stereo not drawn) [Example 1083, 1-(4-(2,2,2-trifluoro-1-hydroxyethyl)phenyl)-3-(6-(4-isopropyl-4H-1,2,4-triazol-3-yl)pyridin-2-yl)imidazolidin-2-one] are more than 7.00 and less than 6.00.
In the same order, the values of `CC(C)n1cnnc1-c1cccc(N2CCN(c3ccc(C4CCN(S(C)(=O)=O)CC4)cc3)C2=O)n1` [Example 1084, 1-(6-(4-isopropyl-4H-1,2,4-triazol-3-yl)pyridin-2-yl)-3-(4-(1-(methylsulfonyl)piperidin-4-yl)phenyl)imidazolidin-2-one] are more than 7.00 and less than 6.00.
In the same order, the values of `CC(C)n1cnnc1-c1cccc(N2CCN(c3ccc(N4[C@H](C)COC[C@@H]4C)cc3)C2=O)n1` [Example 1085, 1-(6-(4-isopropyl-4H-1,2,4-triazol-3-yl)pyridin-2-yl)-3-(4-((3R,5S)-3,5-dimethylmorpholino)phenyl)imidazolidin-2-one] are more than 7.00 and less than 7.00.
Consider `CC(C)n1cnnc1-c1cccc(N2CCN(c3ccc(N4CCC(C#N)CC4)cc3)C2=O)n1` [Example 1087, 1-(4-(3-(6-(4-isopropyl-4H-1,2,4-triazol-3-yl)pyridin-2-yl)-2-oxoimidazolidin-1-yl)phenyl)piperidine-4-carbonitrile], for which the values for the pIC50 in assay [1] and in assay [2] were more than 7.00 and less than 7.00, respectively.
In the same order, the values of `CC(C)NC1CN(c2ccc(N3CCN(c4cccc(-c5nncn5C(C)C)n4)C3=O)cc2)C1` [Example 1088, 1-(6-(4-isopropyl-4H-1,2,4-triazol-3-yl)pyridin-2-yl)-3-(4-(3-(isopropylamino)azetidin-1-yl)phenyl)imidazolidin-2-one] are more than 7.00 and less than 6.00.
As to `CC(C)n1cnnc1-c1cccc(N2CCN(c3ccc(N4CC(O)C4)cc3)C2=O)n1` [Example 1090, 1-(4-(3-hydroxyazetidin-1-yl)phenyl)-3-(6-(4-isopropyl-4H-1,2,4-triazol-3-yl)pyridin-2-yl)imidazolidin-2-one], the negative-log IC50 (pIC50) (in general, −log10 of the IC50, conventionally taken in molar units) is more than 7.00 in assay [1] and less than 6.00 in assay [2].
In the same order, the values of `CC(C)n1cnnc1-c1cccc(N2CCN(c3ccc(N4CCC(C#N)C4)cc3)C2=O)n1` (stereo not drawn) [Example 1091, 1-(4-(3-(6-(4-isopropyl-4H-1,2,4-triazol-3-yl)pyridin-2-yl)-2-oxoimidazolidin-1-yl)phenyl)pyrrolidine-3-carbonitrile] are more than 7.00 and less than 6.00.
In the same order, the values of `CC(C)n1cnnc1-c1cccc(N2CCN(c3ccc(N4CCN(C)CC4)cc3)C2=O)n1` [Example 1092, 1-(6-(4-isopropyl-4H-1,2,4-triazol-3-yl)pyridin-2-yl)-3-(4-(4-methylpiperazin-1-yl)phenyl)imidazolidin-2-one] are more than 7.00 and less than 6.00.
In the same order, the values of `CC(C)n1cnnc1-c1cccc(N2CCN(c3ccc(N4CC(C(N)=O)C4)cc3)C2=O)n1` [Example 1093, 1-(4-(3-(6-(4-isopropyl-4H-1,2,4-triazol-3-yl)pyridin-2-yl)-2-oxoimidazolidin-1-yl)phenyl)azetidine-3-carboxamide] are more than 7.00 and less than 7.00.
Consider `CC(C)n1cnnc1-c1cccc(N2CCN(c3ccc(N4CC(NC5CC5)C4)cc3)C2=O)n1` [Example 1094, 1-(4-(3-(cyclopropylamino)azetidin-1-yl)phenyl)-3-(6-(4-isopropyl-4H-1,2,4-triazol-3-yl)pyridin-2-yl)imidazolidin-2-one], for which the results for the negative logarithm of the IC50 (pIC50) in assay [1] and in assay [2] were more than 7.00 and less than 6.00, respectively.
For the compound `CC(C)n1cnnc1-c1cccc(N2CCN(c3ccc(C(=O)N4CC(C#N)C4)cc3)C2=O)n1` [Example 1095, 1-(4-(3-(6-(4-isopropyl-4H-1,2,4-triazol-3-yl)pyridin-2-yl)-2-oxoimidazolidin-1-yl)benzoyl)azetidine-3-carbonitrile], the results for the pIC50 in assay [1] and in assay [2] were more than 7.00 and less than 6.00, respectively.
As to `CC(C)n1cnnc1-c1cccc(N2CCN(c3ccc(N4CC(F)C4)cc3)C2=O)n1` [Example 1096, 1-(4-(3-fluoroazetidin-1-yl)phenyl)-3-(6-(4-isopropyl-4H-1,2,4-triazol-3-yl)pyridin-2-yl)imidazolidin-2-one], the negative-log IC50 (pIC50) in assay [1] was more than 7.00; in assay [2], less than 7.00.
In the same order, the values of `CC(C)n1cnnc1-c1cccc(N2CCN(c3ccc(C(C#N)N4CCOCC4)cc3)C2=O)n1` (stereo not drawn) [Example 1098, 2-(4-(3-(6-(4-isopropyl-4H-1,2,4-triazol-3-yl)pyridin-2-yl)-2-oxoimidazolidin-1-yl)phenyl)-2-morpholinoacetonitrile] are more than 7.00 and less than 6.00.
In the same order, the values of `CC(C)n1cnnc1-c1cccc(N2CCN(c3ccc(N4CCOCC4)nc3)C2=O)n1` [Example 1101, 1-(6-(4-isopropyl-4H-1,2,4-triazol-3-yl)pyridin-2-yl)-3-(6-morpholinopyridin-3-yl)imidazolidin-2-one] are more than 7.30 and 6.72.
In the same order, the values of `CC(C)n1cnnc1-c1cccc(N2CCN(c3cnc(N4CCOCC4)nc3)C2=O)n1` [Example 1103, 1-(6-(4-isopropyl-4H-1,2,4-triazol-3-yl)pyridin-2-yl)-3-(2-morpholinopyrimidin-5-yl)imidazolidin-2-one] are more than 7.00 and less than 7.00.
Consider `CC(C)n1cnnc1-c1cccc(N2CCN(c3ccc(-n4ccnc4)nc3)C2=O)n1` [Example 1104, 1-(6-(1H-imidazol-1-yl)pyridin-3-yl)-3-(6-(4-isopropyl-4H-1,2,4-triazol-3-yl)pyridin-2-yl)imidazolidin-2-one], for which the pIC50 in assay [1] is more than 7.00; in assay [2], less than 7.00.
In the same order, the values of `CC(C)n1cnnc1-c1cccc(N2CCN(c3ccc(N(C)C)nc3)C2=O)n1` [Example 1105, 1-(6-(dimethylamino)pyridin-3-yl)-3-(6-(4-isopropyl-4H-1,2,4-triazol-3-yl)pyridin-2-yl)imidazolidin-2-one] are more than 7.00 and less than 7.00.
With `CNC(=O)c1ccc(N2CCN(c3cccc(-c4nncn4C(C)C)n3)C2=O)cn1` [Example 1106, 5-(3-(6-(4-isopropyl-4H-1,2,4-triazol-3-yl)pyridin-2-yl)-2-oxoimidazolidin-1-yl)-N-methylpyridine-2-carboxamide], the pIC50 in assay [1] is more than 7.00; in assay [2], less than 6.00.
On to `CC(C)n1cnnc1-c1cccc(N2CCN(c3ccc(N4CC(C#N)C4)nc3)C2=O)n1` [Example 1107, 1-(5-(3-(6-(4-isopropyl-4H-1,2,4-triazol-3-yl)pyridin-2-yl)-2-oxoimidazolidin-1-yl)pyridin-2-yl)azetidine-3-carbonitrile], for which the figures for the pIC50 in assay [1] and in assay [2] were more than 7.30 and more than 7.00, respectively.
In the same order, the values of `CC(C)n1cnnc1-c1cccc(N2CCN(c3cccc(N4CCOCC4)c3)C2=O)n1` [Example 1108, 1-(6-(4-isopropyl-4H-1,2,4-triazol-3-yl)pyridin-2-yl)-3-(3-morpholinophenyl)imidazolidin-2-one] are less than 7.00 and less than 6.00.
